A short description of data set [1]: Determination of pKa of formulated lipids (TNS fluorescence assay in lipid nanoparticles). The note with it: lipid formulated in LNP (lipid/DSPC/cholesterol/PEG-lipid); pH giving half-maximal TNS fluorescence. In kind it is physicochemical. The text has this: As described elsewhere, the pKa of formulated lipids is correlated with the effectiveness of LNPs for delivery of nucleic acids (see Jayaraman et al, Angewandte Chemie, International Edition (2012), 51(34), 8529-8533; Semple et al, Nature Biotechnology 28, 172-176 (2010)). In some embodiments, the preferred range of pKa is ˜5 to ˜7. […] Lipid nanoparticles comprising compound of structure (I)/DSPC/cholesterol/PEG-lipid (50/10/38.5/1.5 or 47.5:10:40.8:1.7 mol %) in PBS at a concentration of 0.4 mM total lipid were prepared using the in-line process as described in Example 1. TNS was prepared as a 100 μM stock solution in distilled water. Vesicles were diluted to 24 μM lipid in 2 mL of buffered solutions containing 10 mM HEPES, 10 mM MES, 10 mM ammonium acetate, and 130 mM NaCl, where the pH ranged from 2.5 to 11. An aliquot of the TNS solution was added to give a final concentration of 1 μM and following vortex mixing fluorescence intensity was measured at room temperature in a SLM Aminco Series 2 Luminescence Spectrophotometer using excitation and emission wavelengths of 321 nm and 445 nm. A sigmoidal best fit analysis was applied to the fluorescence data and the pKa was measured as the pH giving rise to half-maximal fluorescence intensity.

In data set [2] the test system is luciferase expression in the liver. The data set can be described thus: Luciferase mRNA in vivo evaluation using lipid nanoparticle compositions (liver luciferase expression). Set-up: species or system mice. The note with it: LNP with FLuc mRNA, tail vein injection, liver measured 4 hours after administration; for Liver Luc @ 0.5 mg/kg (ng luc/g liver): 0.5 mg mRNA/kg. The protocol: A lipid of structure (I), DSPC, cholesterol and PEG-lipid were solubilized in ethanol at a molar ratio of 50:10:38.5:1.5 or 47.5:10:40.8:1.7. Lipid nanoparticles (LNP) were prepared at a total lipid to mRNA weight ratio of approximately 10:1 to 30:1. Briefly, the mRNA was diluted to 0.2 mg/mL in 10 to 50 mM citrate buffer, pH 4. Syringe pumps were used to mix the ethanolic lipid solution with the mRNA aqueous solution at a ratio of about 1:5 to 1:3 (vol/vol) with total flow rates above 15 mL/min. The ethanol was then removed and the external buffer replaced with PBS by dialysis. Finally, the lipid nanoparticles were filtered through a 0.2 μm pore sterile filter.
Studies were performed in 6-8 week old female C57BL/6 mice (Charles River) 8-10 week old CD-1 (Harlan) mice (Charles River) according to guidelines established by an institutional animal care committee (ACC) and the Canadian Council on Animal Care (CCAC). Varying doses of mRNA-lipid nanoparticle were systemically administered by tail vein injection and animals euthanized at a specific time point (e.g., 4 hours) post-administration. Liver and spleen were collected in pre-weighed tubes, weights determined, immediately snap frozen in liquid nitrogen and stored at −80° C. until processing for analysis.
For liver, approximately 50 mg was dissected for analyses in a 2 mL FastPrep tubes (MP Biomedicals, Solon Ohio). ¼″ ceramic sphere (MP Biomedicals) was added to each tube and 500 μL of Glo Lysis Buffer—GLB (Promega, Madison Wis.) equilibrated to room temperature was added to liver tissue. Liver tissues were homogenized with the FastPrep24 instrument (MP Biomedicals) at 2×6.0 m/s for 15 seconds. Homogenate was incubated at room temperature for 5 minutes prior to a 1:4 dilution in GLB and assessed using SteadyGlo Luciferase assay system (Promega). Specifically, 50 μL of diluted tissue homogenate was reacted with 50 μL of SteadyGlo substrate, shaken for 10 seconds followed by 5 minute incubation and then quantitated using a CentroXS^3 LB 960 luminometer (Berthold Technologies, Germany). The amount of protein assayed was determined by using the BCA protein assay kit (Pierce, Rockford, Ill.). Relative luminescence units (RLU) were then normalized to total μg protein assayed. To convert RLU to ng luciferase a standard curve was generated with QuantiLum Recombinant Luciferase (Promega). […]
Compounds of structure (I) were formulated using the following molar ratio: 47.5% cationic lipid/10% distearoylphosphatidylcholine (DSPC)/40.8% Cholesterol/1.7% PEG lipid (“PEG-DMA” 2-[2-(ω-methoxy (polyethyleneglycol2000)ethoxy]-N,N-ditetradecylacetamide). Relative activity was determined by measuring luciferase expression in the liver 4 hours following administration via tail vein injection as described in Example 1. […]

On to `CCCCCCCCC(CCCCCC)COC(=O)CCCCCC(CCCCCC(=O)OCC(CCCCCC)CCCCCCCC)NCCCCCC(=O)OCC(CC)CCCC` (centres unmarked) [Compound 4], for which, in data set [1], the pKa turned out to be 6.11. Also, in data set [2], the “Liver Luc @ 0.5 mg/kg (ng luc/g liver)” value is on record as 102 ± 42 ng luc/g liver.
In turn, `CCCCCCCCC(CCCCCC)COC(=O)CCCCCN(CCCCCC(=O)OCC(CCCCCC)CCCCCCCC)CCNCCCCCC(=O)OCC(CCCC)CCCCCC` (centres unmarked) [Compound 1] yielded a pKa in data set [1] of 6.39. In addition, the “Liver Luc (ng luc/g liver), dosed at 0.3 mg/kg” value in data set [2] (footnote *: dosed at 0.3 mg/kg) is listed as 1235 ± 345* ng luc/g liver.
In turn, `CCCCCCCCC(CCCCCC)COC(=O)CCCCCNCCN(CCCCCC(=O)OCC(CCCCCC)CCCCCCCC)CCCCCC(=O)OCC(CCCCCC)CCCCCCCC` (centres unmarked) [Compound 3] returned a pKa in data set [1] of 6.5. Besides, in data set [2], the “Liver Luc @ 0.5 mg/kg (ng luc/g liver)” value was 33 ± 1 ng luc/g liver.
For `CCCCCCCCC(CCCCCC)COC(=O)CCCCCC(CCCCCC(=O)OCC(CCCCCC)CCCCCCCC)NCCCCCC(=O)OCC(CCCC)CCCCCC` (centres unmarked) [Compound 2], in that order: 5.76 and 29 ± 4 ng luc/g liver.

(Values after patent publication US11524932B2, “Lipids for use in lipid nanoparticle formulations” (ACUITAS THERAPEUTICS, INC., priority 2017, dated 2022).)
